Entries after “also recorded” stand apart in the source; their conditions may differ. Where a SMILES comes first, the peptide text is derived from it.
Legend:
E. coli strain TG-1 = assay: Survival of Balb/c mice infected with E. coli strain TG-1; type: in vivo, mouse; details: 2 ng i.p., 6 mice at 0 h
Method: Groups of Balb/c mice (20-22 g) were administered i.p. with RN-peptide, or GMDP, or saline (control), and then infected i.p. with E. coli strain TG-1 cells. Two doses of E. coli cells were used—1×10^8 (LD50) and 2×10^8 (LD100). Mice were infected one day (experiment A) or seven days (experiment B) after injection of the immunomodulator. Survival of mice was assessed during three days. Results showing that RN-peptide protects mice from lethal doses of E. coli infections (Table 4).

E6/1.2 mAb = assay: Solid-phase ELISA of TentaGel-bound synthesized peptide with E6/1.2 mAb; type: binding, mouse
Method: Different biological activities are characteristic of GMDP, including adjuvant activity, induction of non-specific resistance to infections, and the ability to induce Ia-antigen expression on murine macrophages (Khaidukov S. V. 1995). In order to evaluate the biological properties, we produced RN-peptide by solid-phase synthesis by Fmoc strategy. Two types of polymers were used, namely standard Wang's resin and TentaGel (Rapp Polymere, Germany). The synthesis carried out on Wang's resin yielded, after removal of protective groups, the free peptide which was used in biological studies after standard chromatographic purification. When hydrophilic TentaGel was used as solid support, the peptide remained bound to polymer after removal of protective groups enabling evaluation of its binding to E6/1.2 mAb by solid-phase ELISA.
Peptide synthesis. All peptides were synthesized manually by the Fmoc/t-Bu technique. Wang Resin (Bachem, Switzerland) was loaded with Fmoc-Asn(Trt)-OH via diisopropylcarbodiimide-4-dimethylaminopyridine (DIC-DMAP) procedure (Heinzelmann et al. 2000). […] Coupling efficiency during polypeptide chain assembly was routinely monitored by Kaiser ninhydrine test and in case of incomplete reactions extra couplings were carried out. […]

[1] = rat, in vivo, ip
Method: (§1) We studied the Ia-antigen-inducing activity of RN-peptide by stimulation in vitro of murine peritoneal macrophages. Flow cytometry was used to assess Ia-antigen expression. […] The pyrogenicity of the peptide was studied in Wistar rats. […] The dynamics of alteration of rectal temperature were monitored during 2.5 h.
The pyrogenic effect SPF female Wistar rats were injected i.p. with a peptide (1.01 mg/kg; 5.74×10^−7 mole/kg) in PBS or with equal dose of GMDP (0.4 mg/kg; 5.74×10^−7 mole/kg). Rectal temperature was recorded every 5 minutes for 160 minutes using PowerLabe/4sp system with an electronic thermometer (MLT1403 Rectal Probe for Rats, AD Instruments USA). All data were quantified (mean±SEM) and compared by the variance analysis.

[2] = tested on: antibody response to N. meningitidis serogroup C capsular polysaccharide; assay: Antibody response to N. meningitidis serogroup C capsular polysaccharide, passive agglutination test; type: in vivo, CBA mice; details: 0.2 μg capsular polysaccharide i.v.
Method: Immunization with capsular polysaccharide of N. meningitidis serogroup C was carried out in CBA mice. Groups of 5 mice were administered i.v. with polysaccharide C (0.2 μg) in saline in the presence of 1-100 μg of RN-peptide. Control mice were immunized with optimal dose (2 μg/mouse) of polysaccharide. Four days later mice were bled from tail vein and the antibody titer was evaluated by passive agglutination test using commercial erythrocyte diagnostic kit.

[3] = tested on: Balb/c mice peritoneal mononuclear cells (PMC); assay: Ia-antigen-inducing effect, flow cytometry, peritoneal mononuclear cells; type: cell-based, mouse; details: at optimal dose, overnight treatment
Method: as §1
Balb/c mice peritoneal mononuclear cells (PMC) were isolated by Histopaque density gradient centrifugation. PMC or WEHI-3 cells were incubated with RN-peptide (0.1-10 μg/ml) or GMDP (positive control) or saline (negative control) in RPMI 1640 medium, supplemented with 5% fetal calf serum upon rotary mixing for 18 h at 37° C. Cells were stained on ice bath with MKD6 anti-Ia^d mAb (supernatant from the in vitro culture, 1:10 dilution) and FITC-labeled anti-mouse immunoglobulin (Sigma, USA, 1:300 dilution), and then with phycoerythrin-labeled F4/80 mAb (Caltag, USA, 0.2 μg/100 μl). Ia antigen expression was assessed by flow cytometry using EPICS “Elite” (Coulter, USA).

E. coli strain K12 = assay: Anti-infective action: survival of Balb/c mice infected with E. coli strain K12; type: in vivo; details: 1 ng-10 μg i.p. 7 days before infection, LD100 and LD50
Method: Groups of Balb/c mice (20-22 g) were administered i.p. with different doses of RN-peptide (1 ng-10 μg) or GMDP (1 ng-10 μg) in saline. Control mice received saline. […] Survival of mice was assessed during three days.

[4] = Immunogenicity of the peptide: anti-peptide antibody titer by solid-phase ELISA; type: in vivo, Balb/c mice; details: mice immunized once or twice in PBS, 1-100 μg i.p.
Method: Immunogenicity of the peptide. Groups of Balb/c mice (5 mice) were immunized with 1-100 μg RN-peptide in PBS i.p. twice with 10-day interval. The anti-peptide antibody titer was estimated in pooled sera by solid-phase ELISA using MaxiSorb plates (Nunc, Denmark) coated with RN-peptide (10 μg/ml). The anti-peptide antibody titer was compared with the titer of normal mouse serum. E6/1.2 mAb was used as a positive control.

[5] = Experiment A (infected one day after injection), 1 × 10^8 E. coli cells (LD50)
[6] = Experiment A (infected one day after injection), 2 × 10^8 E. coli cells (LD100)
[7] = Experiment B (infected seven days after injection), 1 × 10^8 E. coli cells (LD50)
[8] = Experiment B (infected seven days after injection), 2 × 10^8 E. coli cells (LD100)

CC[C@H](C)[C@H](NC(=O)[C@H](CCCCN)NC(=O)[C@H](C)NC(=O)[C@H](Cc1c[nH]cn1)NC(=O)[C@H](Cc1ccc(O)cc1)NC(=O)[C@H](CCCNC(=N)N)NC(=O)[C@@H]1CCCN1C(=O)[C@@H]1CCCN1C(=O)[C@@H](NC(=O)[C@@H](N)CCCNC(=N)N)C(C)C)C(=O)N[C@@H](CO)C(=O)N1CCC[C@H]1C(=O)N[C@@H](CCSC)C(=O)N[C@H](C(=O)N[C@@H](CC(N)=O)C(=O)O)C(C)C [RN-peptide, RVPPRYHAKISPMVN] (H-RVPPRYHAKISPMVN-OH)
Number of survivors (E. coli strain TG-1; [5]): 5 | surviving mice, 24 hours after infection (E. coli strain TG-1; [5]): 6 | surviving mice, 28 hours after infection (E. coli strain TG-1; [5]): 5 | surviving mice, 72 hours after infection (E. coli strain TG-1; [5]): 5 | Number of survivors (E. coli strain TG-1; [6]): 2 | surviving mice, 24 hours after infection (E. coli strain TG-1; [6]): 5 | surviving mice, 28 hours after infection (E. coli strain TG-1; [6]): 5 | surviving mice, 72 hours after infection (E. coli strain TG-1; [6]): 2 | Number of survivors (E. coli strain TG-1; [7]): 4 | surviving mice, 24 hours after infection (E. coli strain TG-1; [7]): 6 | surviving mice, 28 hours after infection (E. coli strain TG-1; [7]): 5 | surviving mice, 72 hours after infection (E. coli strain TG-1; [7]): 4 | Number of survivors (E. coli strain TG-1; [8]): 1 | surviving mice, 24 hours after infection (E. coli strain TG-1; [8]): 3 | surviving mice, 28 hours after infection (E. coli strain TG-1; [8]): 3 | surviving mice, 72 hours after infection (E. coli strain TG-1; [8]): 1 | binding to GMDP-specific mAb (E6/1.2 mAb): retained the ability | increase in body temperature [1]: did not produce this effect | anti-polysaccharide antibody titer (in words) [2]: increased considerably | increase in Ia-positive cell number [3]: 10% | protection from E. coli infection (in words) (E. coli strain K12): substantial protection; also recorded: substantial anti-infective mode of action | anti-RN-peptide antibodies (humoral response to the peptide) [4]: did not reveal any anti-RN-peptide antibodies; also recorded: did not exceed the titer of native mice

Reference: patent US20090142364A1, “Method for finding novel peptide immunostimulatory adjuvants, compositions and methods of use” (priority 2007, published 2009)
